≈ marks a conversion by molar mass, not a printed value. Calls of active or inactive are those of the source. The calls are words filed in the database; no cut-off is given here.

Common to all, as to type: functional
The test system of one test is Staphylococcus aureus. In words: Antibacterial activity against methicillin-resistant Staphylococcus aureus after 20 to 24 hrs.
The subject of another test is Enterococcus. Nature of the test: Antibacterial activity against vancomycin-resistant Enterococcus after 20 to 24 hrs.
Another test relates to Escherichia coli. In words: Antibacterial activity against Escherichia coli ATCC 25922 after 20 to 24 hrs.
In a further test the test system is Pseudomonas aeruginosa. In words: Antibacterial activity against Pseudomonas aeruginosa ATCC 27853 after 20 to 24 hrs.

In the case of `COc1ccccc1/C=N/NC(=N)N/N=C/c1ccccc1OC`, the MIC was above 400 µM in the test with Staphylococcus aureus, 358 µM (≈ 116 µg/mL) in the test with Enterococcus, above 400 µM against Escherichia coli and above 400 µM with Pseudomonas aeruginosa.

For `N=C(N/N=C/c1ccc(F)cc1)N/N=C/c1ccc(F)cc1`, the MIC against Staphylococcus aureus was 47 µM (≈ 14.2 µg/mL); against Enterococcus, 23.7 µM (≈ 7.14 µg/mL); against Escherichia coli, above 400 µM; with Pseudomonas aeruginosa, above 400 µM.

On to `N=C(N/N=C/c1ccncc1)N/N=C/c1ccncc1`, for which the MIC in the test with Staphylococcus aureus and against Enterococcus was above 400 µM throughout.

In the case of `N=C(N/N=C/C(=C/c1ccccc1)c1ccccc1)N/N=C/C(=C/c1ccccc1)c1ccccc1`, the values for the MIC with Staphylococcus aureus and against Enterococcus were 61 µM (≈ 28.6 µg/mL) and above 400 µM, respectively.

As for `N=C(N/N=C/c1ccc(SC(F)(F)F)cc1)N/N=C/c1ccc(SC(F)(F)F)cc1`, the minimal inhibitory concentration (MIC) against Staphylococcus aureus was 96 µM (≈ 44.7 µg/mL); in the test with Enterococcus, 135 µM (≈ 62.8 µg/mL); with Escherichia coli, above 400 µM; with Pseudomonas aeruginosa, above 400 µM.

As for `N=C(N/N=C/c1cc(O)c(O)cc1O)N/N=C/c1cc(O)c(O)cc1O`, the MIC in the test with Staphylococcus aureus is 161 µM (≈ 58.2 µg/mL); against Enterococcus it was 322 µM (≈ 116 µg/mL); with Escherichia coli it was above 400 µM; against Pseudomonas aeruginosa, above 400 µM.

For `N=C(N/N=C/c1ccccc1Br)N/N=C/c1ccccc1Br`, the MIC with Staphylococcus aureus, against Enterococcus, in the test with Escherichia coli and against Pseudomonas aeruginosa was above 400 µM each time.

Turning to `N=C(N/N=C/c1cc(Cl)cc(Cl)c1)N/N=C/c1cc(Cl)cc(Cl)c1`, the MIC in the test on Staphylococcus aureus, against Enterococcus, in the test on Escherichia coli and in the test with Pseudomonas aeruginosa was above 400 µM throughout.

With `N=C(N/N=C/c1ccccc1O)N/N=C/c1ccccc1O`, the MIC is 36 µM (≈ 10.7 µg/mL) against Staphylococcus aureus, 240 µM (≈ 71.4 µg/mL) in the test with Enterococcus, above 400 µM in the test on Escherichia coli and above 400 µM with Pseudomonas aeruginosa.

`Cc1ccc(/C=N/NC(=N)N/N=C/c2ccc(C)cc2)cc1`: the MIC is 9.1 µM (≈ 2.67 µg/mL) against Staphylococcus aureus, 12.1 µM (≈ 3.55 µg/mL) in the test with Enterococcus, above 400 µM against Escherichia coli and above 400 µM in the test with Pseudomonas aeruginosa.

`CCCCc1ccc(/C=N/NC(=N)N/N=C/c2ccc(CCCC)cc2)cc1`: the MIC in the test with Staphylococcus aureus was 232 µM (≈ 87.6 µg/mL); with Enterococcus it was 193 µM (≈ 72.9 µg/mL); in the test with Escherichia coli it was above 400 µM; against Pseudomonas aeruginosa it was above 400 µM.

For `N=C(N/N=C/c1ccc(O)c(O)c1O)N/N=C/c1ccc(O)c(O)c1O`, the MIC is 161 µM (≈ 58.2 µg/mL) against Staphylococcus aureus, 161 µM (≈ 58.2 µg/mL) against Enterococcus, above 400 µM with Escherichia coli and above 400 µM against Pseudomonas aeruginosa.

In the case of `N=C(N/N=C/c1ccccc1Cl)N/N=C/c1ccccc1Cl`, the MIC in the test with Staphylococcus aureus, against Enterococcus, with Escherichia coli and in the test on Pseudomonas aeruginosa was above 400 µM each time.

For `N=C(N/N=C/c1cnc2ccccc2c1)N/N=C/c1cnc2ccccc2c1`, the outcome in the test on Staphylococcus aureus and in the test with Enterococcus was inactive.

For the compound `N=C(N/N=C(\C(=O)O)c1ccccc1)N/N=C(\C(=O)O)c1ccccc1`, the MIC against Staphylococcus aureus and with Enterococcus was above 400 µM throughout. For the same compound, the result in the test on Escherichia coli was inactive.

On to `COc1cc(/C=N/NC(=N)N/N=C/c2cc(Br)c(OC)c(OC)c2)cc(Br)c1OC`, for which the MIC in the test with Staphylococcus aureus, against Enterococcus, against Escherichia coli and in the test with Pseudomonas aeruginosa was above 400 µM each time.

As to `CCCc1ccc(/C=N/NC(=N)N/N=C/c2ccc(CCC)cc2)cc1`, the MIC with Staphylococcus aureus was 83 µM (≈ 29 µg/mL); in the test with Enterococcus it was 73 µM (≈ 25.5 µg/mL); against Escherichia coli, above 400 µM; in the test with Pseudomonas aeruginosa, above 400 µM.

Regarding `N=C(N/N=C/c1ccccc1-c1ccccc1)N/N=C/c1ccccc1-c1ccccc1`, the MIC against Staphylococcus aureus, against Enterococcus, against Escherichia coli and against Pseudomonas aeruginosa was above 400 µM each time.

`N=C(N/N=C/c1ccc(F)c(F)c1)N/N=C/c1ccc(F)c(F)c1`: the MIC in the test with Staphylococcus aureus is 40.1 µM (≈ 13.5 µg/mL); in the test with Enterococcus, 10.7 µM (≈ 3.61 µg/mL); against Escherichia coli it was above 400 µM; with Pseudomonas aeruginosa, above 400 µM.

Regarding `N=C(N/N=C/c1ccc2[nH]ccc2c1)N/N=C/c1ccc2[nH]ccc2c1`, the results for the MIC with Staphylococcus aureus and against Enterococcus were 31.6 µM (≈ 10.9 µg/mL) and 42 µM (≈ 14.4 µg/mL), respectively.

As for `N=C(N/N=C/c1ccc(Cl)cc1Cl)N/N=C/c1ccc(Cl)cc1Cl`, the MIC with Staphylococcus aureus, with Enterococcus, with Escherichia coli and with Pseudomonas aeruginosa was above 400 µM in each case.

For `CCCC/C(=N\NC(=N)N/N=C(\CCCC)c1ccc(Cl)cc1)c1ccc(Cl)cc1`, the MIC in the test with Staphylococcus aureus and against Enterococcus was above 400 µM each time. In the test on Escherichia coli, the result was inactive.

Take `COc1cc(/C=N/NC(=N)N/N=C/c2ccc(O)c(OC)c2)ccc1O`: the MIC was 244 µM (≈ 87.2 µg/mL) against Staphylococcus aureus, 163 µM (≈ 58.3 µg/mL) against Enterococcus, above 400 µM in the test on Escherichia coli and above 400 µM in the test on Pseudomonas aeruginosa.

Regarding `N=C(N/N=C/c1ccc(O)cc1O)N/N=C/c1ccc(O)cc1O`, the MIC against Staphylococcus aureus, in the test with Enterococcus, in the test on Escherichia coli and in the test with Pseudomonas aeruginosa was above 400 µM in each case.

Take `N=C(N/N=C/c1cccnc1N)N/N=C/c1cccnc1N`: the MIC in the test with Staphylococcus aureus and against Enterococcus was above 400 µM in each case.

On to `Cc1cccc(/C=N/NC(=N)N/N=C/c2cccc(C)c2)c1`, for which the MIC in the test on Staphylococcus aureus was 24.4 µM (≈ 7.16 µg/mL); with Enterococcus, 24.4 µM (≈ 7.16 µg/mL); in the test on Escherichia coli, above 400 µM; against Pseudomonas aeruginosa, above 400 µM.

In the case of `N=C(N/N=C/c1cnc2ccccc2n1)N/N=C/c1cnc2ccccc2n1`, the outcome in the test on Staphylococcus aureus and with Enterococcus was inactive.

Turning to `N=C(N/N=C/c1ccc(Br)cc1)N/N=C/c1ccc(Br)cc1`, the MIC against Staphylococcus aureus, with Enterococcus, with Escherichia coli and against Pseudomonas aeruginosa was above 400 µM each time.

On to `N=C(N/N=C/c1cccc(F)c1)N/N=C/c1cccc(F)c1`, for which the MIC in the test on Staphylococcus aureus was 47 µM (≈ 14.2 µg/mL); against Enterococcus it was 71 µM (≈ 21.4 µg/mL); in the test on Escherichia coli it was above 400 µM; with Pseudomonas aeruginosa, above 400 µM.

For `N=C(N/N=C/c1ccc(Cl)cc1O)N/N=C/c1ccc(Cl)cc1O`, the MIC is 80 µM (≈ 29.3 µg/mL) against Staphylococcus aureus, 45 µM (≈ 16.5 µg/mL) in the test with Enterococcus, above 400 µM against Escherichia coli and above 400 µM in the test with Pseudomonas aeruginosa.

On to `N=C(N/N=C/C=C/c1ccccc1)N/N=C/C=C/c1ccccc1`, for which the MIC with Staphylococcus aureus and against Enterococcus was above 400 µM in each case.

For the compound `N=C(N/N=C/c1ccccc1)N/N=C/c1ccccc1`, the MIC with Staphylococcus aureus, in the test with Enterococcus, with Escherichia coli and in the test on Pseudomonas aeruginosa was above 400 µM throughout.

On to `CN(C)c1ccc(/C=N/NC(=N)N/N=C/c2ccc(N(C)C)cc2O)c(O)c1`, for which the MIC against Staphylococcus aureus is 229 µM (≈ 87.8 µg/mL); against Enterococcus it was 76 µM (≈ 29.1 µg/mL); against Escherichia coli it was above 400 µM; with Pseudomonas aeruginosa, above 400 µM.

As to `COc1ccc(/C=N/NC(=N)N/N=C/c2ccc(OC)c(O)c2)cc1O`, the MIC against Staphylococcus aureus, with Enterococcus, against Escherichia coli and against Pseudomonas aeruginosa was above 400 µM each time.

With `CN(C)c1ccc(/C=N/NC(=N)N/N=C/c2ccc(N(C)C)cc2)cc1`, the MIC in the test with Staphylococcus aureus is 30.9 µM (≈ 10.9 µg/mL); against Enterococcus it was 30.9 µM (≈ 10.9 µg/mL); in the test with Escherichia coli it was above 400 µM; against Pseudomonas aeruginosa, above 400 µM.

As for `C/C(=N\NC(=N)N/N=C(\C)c1ccc(C(C)(C)C)cc1)c1ccc(C(C)(C)C)cc1`, the MIC against Staphylococcus aureus was 4.5 µM (≈ 1.83 µg/mL); against Enterococcus, 36.2 µM (≈ 14.7 µg/mL). Further, the outcome in the test with Escherichia coli was inactive.

As to `COc1cc(/C=N/NC(=N)N/N=C/c2cc(O)c(O)c(OC)c2)cc(O)c1O`, the MIC against Staphylococcus aureus, in the test with Enterococcus, against Escherichia coli and against Pseudomonas aeruginosa was above 400 µM in each case.

Turning to `N=C(N/N=C/c1ccc(O)cc1)N/N=C/c1ccc(O)cc1`, the MIC against Staphylococcus aureus was 192 µM (≈ 57.1 µg/mL); in the test with Enterococcus, 288 µM (≈ 85.6 µg/mL); with Escherichia coli, above 400 µM; against Pseudomonas aeruginosa, above 400 µM.

As for `CCC/C(=N\NC(=N)N/N=C(\CCC)c1ccc(Cl)cc1)c1ccc(Cl)cc1`, the MIC against Staphylococcus aureus and against Enterococcus was above 400 µM throughout. The result in the test on Escherichia coli was inactive.

Regarding `N=C(N/N=C/c1c(Cl)cccc1Cl)N/N=C/c1c(Cl)cccc1Cl`, the MIC against Staphylococcus aureus, with Enterococcus, in the test with Escherichia coli and in the test on Pseudomonas aeruginosa was above 400 µM throughout.

`N=C(N/N=C/c1ccc2ccccc2c1)N/N=C/c1ccc2ccccc2c1`: the MIC with Staphylococcus aureus turned out to be 239 µM (≈ 87.3 µg/mL); with Enterococcus, 159 µM (≈ 58.1 µg/mL).

With `CC/C(=N\NC(=N)N/N=C(\CC)c1ccc(Cl)cc1)c1ccc(Cl)cc1`, the MIC in the test with Staphylococcus aureus is 56 µM (≈ 21.9 µg/mL); in the test on Enterococcus, 18.7 µM (≈ 7.3 µg/mL). Also, in the test on Escherichia coli, the outcome was inactive.

For the compound `N=C(N/N=C/c1cnccc1Cl)N/N=C/c1cnccc1Cl`, the values for the MIC with Staphylococcus aureus and with Enterococcus were 172 µM (≈ 57.8 µg/mL) and 86 µM (≈ 28.9 µg/mL), respectively.

Consider `C/C(=N\NC(=N)N/N=C(\C)c1ccccc1)c1ccccc1`, for which the MIC was 18.2 µM (≈ 5.34 µg/mL) in the test with Staphylococcus aureus and 49 µM (≈ 14.4 µg/mL) with Enterococcus. Also, the result in the test with Escherichia coli was inactive.

In the case of `C/C(=N\NC(=N)N/N=C(\C)c1ccc(N2CCNCC2)cc1)c1ccc(N2CCNCC2)cc1`, the values for the MIC in the test with Staphylococcus aureus and against Enterococcus were 243 µM (≈ 112 µg/mL) and 278 µM (≈ 128 µg/mL), respectively. Moreover, the outcome in the test with Escherichia coli was inactive.

Take `N=C(N/N=C/C1CCCCC1)N/N=C/C1CCCCC1`: the results for the MIC with Staphylococcus aureus and in the test on Enterococcus were 408 µM (≈ 113 µg/mL) and 306 µM (≈ 84.9 µg/mL), respectively.

On to `N=C(N/N=C/c1csc2ccc(Cl)cc12)N/N=C/c1csc2ccc(Cl)cc12`, for which the MIC in the test with Staphylococcus aureus is above 400 µM; in the test on Enterococcus, 33.1 µM (≈ 14.8 µg/mL).

`C/C(=N\NC(=N)N/N=C(\C)c1ccc(C(F)(F)F)cc1)c1ccc(C(F)(F)F)cc1`: the MIC was above 400 µM against Staphylococcus aureus and 17.2 µM (≈ 7.39 µg/mL) in the test with Enterococcus. The outcome in the test on Escherichia coli was inactive.

As for `C/C(=N\NC(=N)N/N=C(\C)c1ccc(C)cc1)c1ccc(C)cc1`, the MIC turned out to be 11.2 µM (≈ 3.6 µg/mL) in the test on Staphylococcus aureus and 8.4 µM (≈ 2.7 µg/mL) with Enterococcus. Moreover, the outcome in the test with Escherichia coli was inactive.

Consider `N=C(N/N=C(\CN)c1ccccc1)N/N=C(\CN)c1ccccc1`, for which the MIC in the test with Staphylococcus aureus and with Enterococcus was above 400 µM throughout. Moreover, the result in the test on Escherichia coli was inactive.

Consider `COc1ccc(/C=C/C=N/NC(=N)N/N=C/C=C/c2ccc(OC)cc2)cc1`, for which the MIC is 309 µM (≈ 117 µg/mL) against Staphylococcus aureus and above 400 µM against Enterococcus.

Turning to `C/C(=N\NC(=N)N/N=C(\C)c1ccc(Br)cc1)c1ccc(Br)cc1`, the MIC against Staphylococcus aureus was 16.4 µM (≈ 7.4 µg/mL); against Enterococcus it was 24.6 µM (≈ 11.1 µg/mL). The result with Escherichia coli was inactive.

Source of the values: ChEMBL document CHEMBL3779887, “Robenidine Analogues as Gram-Positive Antibacterial Agents” (J Med Chem, 2016).
